Measurements as given in PubChem BioAssay (NCI).
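Cultured in 96-well plates, cells were exposed to test compound for 48 hours across five concentrations. TGI marks complete inhibition of growth.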

What was measured:
Assay in all cases: growth of human tumour cells (NCI), 48 h
K-562 leukemia = test system: K-562 leukemia
HT29 colon = test system: HT29 colon
OVCAR-8 ovarian = test system: OVCAR-8 ovarian
PC-3 prostate = test system: PC-3 prostate
CAKI-1 renal = test system: CAKI-1 renal
BT-549 breast = test system: BT-549 breast
M14 melanoma = test system: M14 melanoma
SK-MEL-28 melanoma = test system: SK-MEL-28 melanoma
UACC-62 melanoma = test system: UACC-62 melanoma
IGROV1 ovarian = test system: IGROV1 ovarian
UO-31 renal = test system: UO-31 renal
786-0 renal = test system: 786-0 renal
HCC-2998 colon = test system: HCC-2998 colon
U251 CNS = test system: U251 CNS
LOX IMVI melanoma = test system: LOX IMVI melanoma
HCT-15 colon = test system: HCT-15 colon
KM12 colon = test system: KM12 colon
NCI-H522 lung = test system: NCI-H522 lung
MDA-MB-231 breast = test system: MDA-MB-231 breast
OVCAR-5 ovarian = test system: OVCAR-5 ovarian
MALME-3M melanoma = test system: MALME-3M melanoma
MDA-N = test system: MDA-N
SF-268 CNS = test system: SF-268 CNS
SR leukemia = test system: SR leukemia
ACHN renal = test system: ACHN renal
NCI/ADR-RES ovarian = test system: NCI/ADR-RES ovarian
SNB-19 CNS = test system: SNB-19 CNS
MDA-MB-435 = test system: MDA-MB-435
CCRF-CEM leukemia = test system: CCRF-CEM leukemia
NCI-H23 lung = test system: NCI-H23 lung
SF-539 CNS = test system: SF-539 CNS
T-47D breast = test system: T-47D breast
SW-620 colon = test system: SW-620 colon
HS 578T breast = test system: HS 578T breast
COLO 205 colon = test system: COLO 205 colon
OVCAR-3 ovarian = test system: OVCAR-3 ovarian
SN12C renal = test system: SN12C renal
MOLT-4 leukemia = test system: MOLT-4 leukemia
NCI-H226 lung = test system: NCI-H226 lung
A549 NSCLC = test system: A549 NSCLC
RPMI-8226 leukemia = test system: RPMI-8226 leukemia
OVCAR-4 ovarian = test system: OVCAR-4 ovarian
A498 renal = test system: A498 renal
TK-10 renal = test system: TK-10 renal
NCI-H460 lung = test system: NCI-H460 lung
EKVX NSCLC = test system: EKVX NSCLC
SF-295 CNS = test system: SF-295 CNS
SK-OV-3 ovarian = test system: SK-OV-3 ovarian
HOP-62 NSCLC = test system: HOP-62 NSCLC
SK-MEL-5 melanoma = test system: SK-MEL-5 melanoma
UACC-257 melanoma = test system: UACC-257 melanoma
SK-MEL-2 melanoma = test system: SK-MEL-2 melanoma
HOP-92 NSCLC = test system: HOP-92 NSCLC
RXF 393 renal = test system: RXF 393 renal
SNB-75 CNS = test system: SNB-75 CNS
HCT-116 colon = test system: HCT-116 colon
DU-145 prostate = test system: DU-145 prostate
MCF7 breast = test system: MCF7 breast
HL-60(TB) leukemia = test system: HL-60(TB) leukemia
DMS 114 small cell lung = test system: DMS 114 small cell lung
M19-MEL melanoma = test system: M19-MEL melanoma
KM20L2 colon = test system: KM20L2 colon
LXFL 529 NSCLC = test system: LXFL 529 NSCLC

Cn1c2ccccc2c2c3c(c4c5ccccc5n(C5OC(CO)C(O)C(O)C5O)c4c21)C(=O)OC3=O (stereo not drawn)
TGI (K-562 leukemia): > 100 µM | TGI (HT29 colon): > 100 µM | TGI (OVCAR-8 ovarian): > 100 µM | TGI (PC-3 prostate): > 100 µM | TGI (CAKI-1 renal): > 100 µM | TGI (BT-549 breast): > 100 µM | TGI (M14 melanoma): > 100 µM | TGI (SK-MEL-28 melanoma): > 100 µM | TGI (UACC-62 melanoma): > 100 µM | TGI (IGROV1 ovarian): > 100 µM | TGI (UO-31 renal): > 100 µM | TGI (786-0 renal): > 100 µM | TGI (HCC-2998 colon): > 100 µM | TGI (U251 CNS): > 100 µM | TGI (LOX IMVI melanoma): > 100 µM | TGI (HCT-15 colon): > 100 µM | TGI (KM12 colon): > 100 µM | TGI (NCI-H522 lung): > 100 µM | TGI (MDA-MB-231 breast): > 100 µM | TGI (OVCAR-5 ovarian): > 100 µM | TGI (MALME-3M melanoma): > 100 µM | TGI (MDA-N): > 100 µM | TGI (SF-268 CNS): > 100 µM | TGI (SR leukemia): > 100 µM | TGI (ACHN renal): > 100 µM | TGI (NCI/ADR-RES ovarian): > 100 µM | TGI (SNB-19 CNS): > 100 µM | TGI (MDA-MB-435): > 100 µM | TGI (CCRF-CEM leukemia): > 100 µM | TGI (NCI-H23 lung): > 100 µM | TGI (SF-539 CNS): > 100 µM | TGI (T-47D breast): > 100 µM | TGI (SW-620 colon): > 100 µM | TGI (HS 578T breast): > 100 µM | TGI (COLO 205 colon): > 100 µM | TGI (OVCAR-3 ovarian): > 100 µM | TGI (SN12C renal): > 100 µM | TGI (MOLT-4 leukemia): > 100 µM | TGI (NCI-H226 lung): > 100 µM | TGI (A549 NSCLC): > 100 µM | TGI (RPMI-8226 leukemia): > 100 µM | TGI (OVCAR-4 ovarian): > 100 µM | TGI (A498 renal): > 100 µM | TGI (TK-10 renal): > 100 µM | TGI (NCI-H460 lung): > 100 µM | TGI (EKVX NSCLC): > 100 µM | TGI (SF-295 CNS): > 100 µM | TGI (SK-OV-3 ovarian): > 100 µM | TGI (HOP-62 NSCLC): > 100 µM | TGI (SK-MEL-5 melanoma): > 100 µM | TGI (UACC-257 melanoma): > 100 µM | TGI (SK-MEL-2 melanoma): > 100 µM | TGI (HOP-92 NSCLC): > 100 µM | TGI (RXF 393 renal): > 100 µM | TGI (SNB-75 CNS): > 100 µM | TGI (HCT-116 colon): > 100 µM | TGI (DU-145 prostate): > 100 µM | TGI (MCF7 breast): > 100 µM

CN=c1ssc(=S)n1C(C)C
TGI (HT29 colon): 16.2 µM | TGI (OVCAR-8 ovarian): > 100 µM | TGI (CAKI-1 renal): 88.2 µM | TGI (M14 melanoma): 79 µM | TGI (HL-60(TB) leukemia): 14.7 µM | TGI (SK-MEL-28 melanoma): 9.24 µM | TGI (UACC-62 melanoma): 31.1 µM | TGI (IGROV1 ovarian): 46.4 µM | TGI (UO-31 renal): > 100 µM | TGI (HCC-2998 colon): 27.8 µM | TGI (KM12 colon): > 100 µM | TGI (SF-268 CNS): > 100 µM | TGI (ACHN renal): 95.5 µM | TGI (SNB-19 CNS): > 100 µM | TGI (DMS 114 small cell lung): 20.3 µM | TGI (CCRF-CEM leukemia): 11.8 µM | TGI (NCI-H23 lung): 80.7 µM | TGI (SF-539 CNS): 86.6 µM | TGI (SW-620 colon): 20.6 µM | TGI (COLO 205 colon): 39.4 µM | TGI (OVCAR-3 ovarian): 35 µM | TGI (MOLT-4 leukemia): 51.7 µM | TGI (NCI-H226 lung): > 100 µM | TGI (A549 NSCLC): > 100 µM | TGI (RPMI-8226 leukemia): 60.3 µM | TGI (M19-MEL melanoma): 28.6 µM | TGI (TK-10 renal): > 100 µM | TGI (NCI-H460 lung): > 100 µM | TGI (KM20L2 colon): 41.4 µM | TGI (EKVX NSCLC): > 100 µM | TGI (SF-295 CNS): > 100 µM | TGI (LXFL 529 NSCLC): 19.9 µM | TGI (HOP-62 NSCLC): 43.7 µM | TGI (SK-MEL-5 melanoma): > 100 µM | TGI (UACC-257 melanoma): 53.5 µM | TGI (SK-MEL-2 melanoma): > 100 µM | TGI (HOP-92 NSCLC): 67.1 µM | TGI (RXF 393 renal): 22.4 µM | TGI (SNB-75 CNS): 52.3 µM | TGI (HCT-116 colon): > 100 µM
